Experimental findings from patent publication US10351561B2, “Pyrazolo[3,4-b]pyridines and imidazo[1,5-b]pyridazines as PDE1 inhibitors” (H. Lundbeck A/S, priority 2016, dated 2019) are described below.

What all share (format): biochemical
The target in assay [1] is PDE1A (Homo sapiens, UniProt P54750). Briefly: PDE1 inhibition assay (PDE1A), SPA with tritium labelled cAMP. The settings on record: 15 nM tritium labelled cAMP, 1 hr at room temperature, SPA beads.
Assay [2] addresses PDE1B (Homo sapiens, UniProt Q01064). Briefly: PDE1 inhibition assay (PDE1B), SPA with tritium labelled cAMP. The settings on record: 15 nM tritium labelled cAMP, 1 hr at room temperature, SPA beads; read-out: PDE1B, IC50. On the procedure:
Reactions were initiated by addition of the cyclic nucleotide substrate, and reactions were allowed to proceed for 1 hr at room temperature before being terminated through mixing with 20 μL (0.2 mg) yttrium silicate SPA beads (PerkinElmer).

In assay [3] the target is PDE1C (Homo sapiens, UniProt Q14123). Briefly: PDE1 inhibition assay (PDE1C), SPA with tritium labelled cAMP. The settings on record: 15 nM tritium labelled cAMP, 1 hr at room temperature, SPA beads.
Chain of PDE1C (Q14123 whole entry): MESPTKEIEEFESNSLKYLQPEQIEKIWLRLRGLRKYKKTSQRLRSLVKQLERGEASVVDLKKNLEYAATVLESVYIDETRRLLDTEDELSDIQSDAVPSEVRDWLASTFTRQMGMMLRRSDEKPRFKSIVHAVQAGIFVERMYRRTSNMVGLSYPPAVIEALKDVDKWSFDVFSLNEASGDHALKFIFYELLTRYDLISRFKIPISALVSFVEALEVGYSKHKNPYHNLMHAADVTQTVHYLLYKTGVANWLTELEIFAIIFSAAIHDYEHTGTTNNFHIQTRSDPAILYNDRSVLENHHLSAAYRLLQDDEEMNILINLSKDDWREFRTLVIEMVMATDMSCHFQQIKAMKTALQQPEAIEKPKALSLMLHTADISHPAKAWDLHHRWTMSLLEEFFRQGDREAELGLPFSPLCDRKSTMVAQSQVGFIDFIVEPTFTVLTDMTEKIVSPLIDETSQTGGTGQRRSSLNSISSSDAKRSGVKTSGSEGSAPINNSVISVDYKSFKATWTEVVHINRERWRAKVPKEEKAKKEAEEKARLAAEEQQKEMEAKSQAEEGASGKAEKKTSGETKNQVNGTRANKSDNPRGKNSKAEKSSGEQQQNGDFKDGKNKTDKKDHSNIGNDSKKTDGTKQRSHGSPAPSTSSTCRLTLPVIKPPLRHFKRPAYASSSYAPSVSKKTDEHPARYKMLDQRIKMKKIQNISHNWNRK

Chain of PDE1B (Q01064 whole entry): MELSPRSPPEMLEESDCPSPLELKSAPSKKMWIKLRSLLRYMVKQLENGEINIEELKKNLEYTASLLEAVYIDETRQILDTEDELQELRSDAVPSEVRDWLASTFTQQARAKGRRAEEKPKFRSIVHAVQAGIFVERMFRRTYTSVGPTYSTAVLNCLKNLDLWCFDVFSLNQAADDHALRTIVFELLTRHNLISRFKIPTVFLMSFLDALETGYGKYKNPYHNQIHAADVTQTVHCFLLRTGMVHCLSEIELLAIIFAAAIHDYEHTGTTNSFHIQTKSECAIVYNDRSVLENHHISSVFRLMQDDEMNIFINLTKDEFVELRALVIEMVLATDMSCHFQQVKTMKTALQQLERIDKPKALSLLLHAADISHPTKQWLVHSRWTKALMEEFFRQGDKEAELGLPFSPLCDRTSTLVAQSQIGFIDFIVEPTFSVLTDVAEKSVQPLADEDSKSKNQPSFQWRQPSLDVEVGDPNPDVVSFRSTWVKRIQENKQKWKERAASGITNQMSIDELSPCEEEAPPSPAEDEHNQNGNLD
Chain of PDE1A (P54750 whole entry): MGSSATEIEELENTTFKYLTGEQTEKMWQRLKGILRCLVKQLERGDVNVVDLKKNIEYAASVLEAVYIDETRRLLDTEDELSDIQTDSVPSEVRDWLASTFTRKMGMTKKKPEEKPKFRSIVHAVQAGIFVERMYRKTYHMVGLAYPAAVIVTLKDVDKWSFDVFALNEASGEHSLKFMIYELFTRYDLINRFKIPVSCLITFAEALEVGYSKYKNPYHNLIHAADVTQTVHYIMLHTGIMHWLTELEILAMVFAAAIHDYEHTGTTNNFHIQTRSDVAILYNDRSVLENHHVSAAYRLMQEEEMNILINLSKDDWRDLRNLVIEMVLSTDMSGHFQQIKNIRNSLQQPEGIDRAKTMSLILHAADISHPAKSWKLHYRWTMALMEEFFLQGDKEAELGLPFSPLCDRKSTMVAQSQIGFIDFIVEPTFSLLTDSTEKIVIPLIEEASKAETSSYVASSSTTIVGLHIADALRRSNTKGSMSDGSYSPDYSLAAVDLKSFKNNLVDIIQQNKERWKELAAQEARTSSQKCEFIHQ

With `CCOc1ncccc1-c1cc(NCc2ccn(C)n2)c2c(C(C)C)nc(C)n2n1` [Example 24, 2-(2-ethoxy-3-pyridyl)-5-isopropyl-7-methyl-N-[(1-methylpyrazol-3-yl)methyl]imidazo[1,5-b]pyridazin-4-amine], the IC50 – broadly, the midpoint of a concentration-inhibition curve – in assay [1] stood at 14 nM; in assay [2], 1.8 nM; in assay [3], 13 nM.

Take `CCOc1ncccc1-c1cc(NCc2ccnc(OC)c2)c2c(C(C)C)nn(C)c2n1` [Example 7, 6-(2-ethoxy-3-pyridyl)-3-isopropyl-N-[(2-methoxy-4-pyridyl)methyl]-1-methyl-pyrazolo[3,4-b]pyridin-4-amine]: the IC50 was 14 nM in assay [1], 2.6 nM in assay [2] and 18 nM in assay [3].

In the case of `CCOc1ncccc1-c1cc(NCc2cc[nH]n2)c2c(C(C)C)nc(C)n2n1` [Example 10, 2-(2-ethoxy-3-pyridyl)-5-isopropyl-7-methyl-N-(1H-pyrazol-3-ylmethyl)imidazo[1,5-b]pyridazin-4-amine], the values for the IC50 in assay [1], in assay [2] and in assay [3] were 15 nM, 1.6 nM and 13 nM, respectively.

As to `CCOc1nnccc1-c1cc(NCc2cnn(C)c2)c2c(C(C)C)nc(C)n2n1` [Example 69, 2-(3-ethoxypyridazin-4-yl)-5-isopropyl-7-methyl-N-[(1-methylpyrazol-4-yl)methyl]imidazo[1,5-b]pyridazin-4-amine], the IC50 came out at 24 nM in assay [1], 5.2 nM in assay [2] and 25 nM in assay [3].

For the compound `CC(C)c1nn(C)c2nc(-c3ccccc3)cc(NCc3ncn(C)n3)c12` [Example 63, 3-isopropyl-1-methyl-N-[(1-methyl-1,2,4-triazol-3-yl)methyl]-6-phenyl-pyrazolo[3,4-b]pyridin-4-amine], the IC50 came to 83 nM in assay [1], 21 nM in assay [2] and 36 nM in assay [3].

Consider `CCOc1ncccc1-c1cc(NCc2ccc(OC)nc2)c2c(C(C)C)nn(C)c2n1` [Example 37, 6-(2-ethoxy-3-pyridyl)-3-isopropyl-N-[(6-methoxy-3-pyridyl)methyl]-1-methyl-pyrazolo[3,4-b]pyridin-4-amine], for which the results for the IC50 in assay [1], in assay [2] and in assay [3] were 120 nM, 27 nM and 46 nM, respectively.

With `CCOc1ncccc1-c1cc(NCc2cccnc2OC)c2c(C(C)C)nc(C)n2n1` [Example 77, 2-(2-ethoxy-3-pyridyl)-5-isopropyl-N-[(2-methoxy-3-pyridyl)methyl]-7-methyl-imidazo[1,5-b]pyridazin-4-amine], the IC50 in assay [1] worked out at 48 nM; in assay [2], 9 nM; in assay [3], 48 nM.

Take `CCOc1ncccc1-c1cc(NCc2ncn(C)n2)c2c(C(C)CC)nc(C)n2n1` (single isomer, unassigned; (+)) [Example 50, (+)-2-(2-ethoxy-3-pyridyl)-7-methyl-N-[(1-methyl-1,2,4-triazol-3-yl)methyl]-5-[1-methylpropyl]imidazo[1,5-b]pyridazin-4-amine]: the IC50 was determined as 5.6 nM in assay [1], 0.53 nM in assay [2] and 2.4 nM in assay [3].

With `CCCOc1nnccc1-c1cc(NCc2ncn(C)n2)c2c(C(C)C)nn(C)c2n1` [Example 67, 3-isopropyl-1-methyl-N-[(1-methyl-1,2,4-triazol-3-yl)methyl]-6-(3-propoxypyridazin-4-yl)pyrazolo[3,4-b]pyridin-4-amine], the IC50 in assay [1] stood at 7.8 nM; in assay [2], 2.7 nM; in assay [3], 19 nM.

As for `CCOc1ncccc1-c1cc(NCc2nnn(C)n2)c2c(C(C)C)nc(C)n2n1` [Example 23, 2-(2-ethoxy-3-pyridyl)-5-isopropyl-7-methyl-N-[(2-methyltetrazol-5-yl)methyl]imidazo[1,5-b]pyridazin-4-amine], the IC50 in assay [1] was 5.4 nM; in assay [2] it was 0.77 nM; in assay [3] it was 4.7 nM.
